In patent US11319376B2, “Combination of glucagon receptor antagonists and PI3K pathway inhibitors for the treatment of cancer” (REMD Biotherapeutics, Inc., priority 2016, dated 2022):

Columns and labels:
[1] = system: C57BL/6 mice; test: Effect of REMD2.59c pretreatment on induction of hyperglycemia by PI3K/Akt pathway inhibitors in C57BL/6 fed mice; format: in vivo, mouse; conditions: fed blood glucose, −24 h pretreatment ASN vehicle or REMD2.59c 7 mg/kg i.p., mean ± sd, n=3; for 2 h Glucose: 2 h after single p.o. dose (BYL719 50, BKM120 50, GDC-0980 10, MK2206 150, GSK690693 30, GDC-0068 10 or 100, OSI-906 100 mg/kg); for 4 h Glucose: 4 h after single p.o. dose (same doses as 2 h)
[2] = system: CD-17 scid mice; conditions: cited from earlier work; for effect on GSK690693-induced hyperglycemia: CD-17 scid mice
[3] = system: BALB/c athymic nude mice; test: Glucose and insulin response to MK2206 with/without REMD2.59c pretreatment in BALB/c athymic nude mice (MiaPaCa2 tumor bearing or naive); format: in vivo, mouse; conditions: for −0.5 h Glucose: 0.5 h before MK2206 dosing
[4] = system: cancer patient of diverse malignancies; conditions: cancer patients; cited from earlier work
[5] = system: patients with type 1 diabetes; conditions: single dose 70 mg subcutaneous; cited from earlier work
[6] = molecular target: ATR (Homo sapiens, UniProt Q13535); conditions: read-out: Target Selectivity (IC50) ATR; cited from earlier work
ATR, sequence (Q13535 whole entry): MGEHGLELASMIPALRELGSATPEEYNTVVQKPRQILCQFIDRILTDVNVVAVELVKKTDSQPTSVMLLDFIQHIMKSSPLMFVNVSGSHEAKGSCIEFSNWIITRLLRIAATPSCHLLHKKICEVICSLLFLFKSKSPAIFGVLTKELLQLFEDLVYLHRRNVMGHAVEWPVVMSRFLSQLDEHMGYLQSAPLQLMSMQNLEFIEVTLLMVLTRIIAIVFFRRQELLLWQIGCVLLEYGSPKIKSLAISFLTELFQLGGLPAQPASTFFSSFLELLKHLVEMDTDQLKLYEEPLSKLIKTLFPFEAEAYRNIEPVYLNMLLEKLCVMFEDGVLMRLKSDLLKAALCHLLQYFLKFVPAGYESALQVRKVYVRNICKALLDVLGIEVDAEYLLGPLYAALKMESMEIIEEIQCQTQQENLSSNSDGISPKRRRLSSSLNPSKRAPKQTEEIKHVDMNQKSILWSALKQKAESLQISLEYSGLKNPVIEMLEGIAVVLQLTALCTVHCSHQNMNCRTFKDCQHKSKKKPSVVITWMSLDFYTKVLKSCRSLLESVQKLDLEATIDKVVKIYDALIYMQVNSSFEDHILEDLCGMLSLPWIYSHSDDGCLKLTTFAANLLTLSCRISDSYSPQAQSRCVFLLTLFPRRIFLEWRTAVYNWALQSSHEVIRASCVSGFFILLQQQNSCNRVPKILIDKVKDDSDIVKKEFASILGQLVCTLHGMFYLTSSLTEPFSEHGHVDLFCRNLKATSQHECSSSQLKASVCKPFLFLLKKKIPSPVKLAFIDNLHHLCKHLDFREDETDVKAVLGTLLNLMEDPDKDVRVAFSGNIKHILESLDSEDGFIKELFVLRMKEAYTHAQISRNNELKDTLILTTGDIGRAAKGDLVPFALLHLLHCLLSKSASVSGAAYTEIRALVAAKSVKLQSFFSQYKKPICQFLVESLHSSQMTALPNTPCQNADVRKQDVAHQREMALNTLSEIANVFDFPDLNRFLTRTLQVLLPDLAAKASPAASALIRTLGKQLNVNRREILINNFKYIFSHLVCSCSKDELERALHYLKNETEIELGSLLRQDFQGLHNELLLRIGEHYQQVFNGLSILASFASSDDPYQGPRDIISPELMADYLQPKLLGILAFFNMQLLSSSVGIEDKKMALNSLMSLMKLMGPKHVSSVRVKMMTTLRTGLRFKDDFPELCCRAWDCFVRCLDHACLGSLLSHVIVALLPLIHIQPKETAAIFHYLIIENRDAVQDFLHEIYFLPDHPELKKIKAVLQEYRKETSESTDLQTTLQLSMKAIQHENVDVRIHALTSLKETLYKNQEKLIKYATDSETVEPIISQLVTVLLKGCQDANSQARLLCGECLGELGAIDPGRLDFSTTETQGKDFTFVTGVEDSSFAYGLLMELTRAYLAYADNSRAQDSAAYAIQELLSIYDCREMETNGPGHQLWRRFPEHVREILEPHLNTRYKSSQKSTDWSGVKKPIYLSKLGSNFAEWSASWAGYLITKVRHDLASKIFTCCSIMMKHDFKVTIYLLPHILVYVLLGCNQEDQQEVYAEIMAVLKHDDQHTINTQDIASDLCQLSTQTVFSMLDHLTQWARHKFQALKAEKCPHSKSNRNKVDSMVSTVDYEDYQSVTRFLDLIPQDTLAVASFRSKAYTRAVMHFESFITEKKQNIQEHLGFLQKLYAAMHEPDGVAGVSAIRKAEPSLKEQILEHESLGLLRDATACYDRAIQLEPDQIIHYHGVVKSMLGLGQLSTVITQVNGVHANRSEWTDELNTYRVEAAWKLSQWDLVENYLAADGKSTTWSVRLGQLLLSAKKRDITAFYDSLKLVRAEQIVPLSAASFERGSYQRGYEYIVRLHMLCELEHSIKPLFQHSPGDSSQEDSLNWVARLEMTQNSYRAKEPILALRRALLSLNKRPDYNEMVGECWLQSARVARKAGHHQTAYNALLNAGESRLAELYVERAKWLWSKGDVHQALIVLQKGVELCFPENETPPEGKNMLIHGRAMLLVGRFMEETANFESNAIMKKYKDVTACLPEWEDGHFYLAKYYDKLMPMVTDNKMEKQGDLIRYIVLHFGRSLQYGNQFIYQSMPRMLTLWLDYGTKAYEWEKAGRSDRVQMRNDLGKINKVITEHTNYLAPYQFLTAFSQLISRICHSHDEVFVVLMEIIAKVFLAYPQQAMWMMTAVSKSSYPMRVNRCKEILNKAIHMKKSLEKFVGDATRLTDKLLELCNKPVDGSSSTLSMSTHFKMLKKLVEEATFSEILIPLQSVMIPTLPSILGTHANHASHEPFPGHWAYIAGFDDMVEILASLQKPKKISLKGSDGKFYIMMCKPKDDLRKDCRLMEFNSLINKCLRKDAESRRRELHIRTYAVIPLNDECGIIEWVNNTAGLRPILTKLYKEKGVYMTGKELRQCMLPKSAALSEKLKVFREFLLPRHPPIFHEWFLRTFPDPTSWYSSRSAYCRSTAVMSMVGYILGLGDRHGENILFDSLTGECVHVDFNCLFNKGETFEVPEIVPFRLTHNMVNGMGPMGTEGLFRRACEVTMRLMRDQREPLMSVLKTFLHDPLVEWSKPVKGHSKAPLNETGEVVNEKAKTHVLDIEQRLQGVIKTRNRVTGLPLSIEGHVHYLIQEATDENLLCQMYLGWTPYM
ATR, sequence (Q8WXE1 whole entry partner): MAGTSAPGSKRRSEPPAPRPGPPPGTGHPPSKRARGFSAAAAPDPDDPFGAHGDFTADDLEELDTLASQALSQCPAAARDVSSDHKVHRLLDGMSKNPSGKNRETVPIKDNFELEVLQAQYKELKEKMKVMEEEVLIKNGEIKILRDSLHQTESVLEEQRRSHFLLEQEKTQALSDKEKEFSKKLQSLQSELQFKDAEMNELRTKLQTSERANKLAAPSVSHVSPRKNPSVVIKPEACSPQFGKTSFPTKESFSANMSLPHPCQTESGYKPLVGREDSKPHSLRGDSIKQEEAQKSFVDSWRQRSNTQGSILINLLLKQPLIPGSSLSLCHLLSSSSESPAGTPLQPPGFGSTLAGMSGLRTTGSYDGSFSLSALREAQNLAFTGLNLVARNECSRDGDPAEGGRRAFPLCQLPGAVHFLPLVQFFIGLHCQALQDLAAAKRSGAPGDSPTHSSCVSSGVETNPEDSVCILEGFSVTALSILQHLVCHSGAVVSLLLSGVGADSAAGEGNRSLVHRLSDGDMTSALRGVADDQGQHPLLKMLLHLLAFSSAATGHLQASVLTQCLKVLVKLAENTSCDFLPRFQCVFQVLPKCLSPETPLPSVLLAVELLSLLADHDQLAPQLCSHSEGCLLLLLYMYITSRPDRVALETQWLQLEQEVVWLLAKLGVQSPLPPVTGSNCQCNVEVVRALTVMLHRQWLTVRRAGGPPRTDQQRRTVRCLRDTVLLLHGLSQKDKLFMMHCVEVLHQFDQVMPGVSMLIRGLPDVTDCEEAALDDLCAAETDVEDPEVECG

[7] = molecular target: DNAPK (Homo sapiens, UniProt P78527); conditions: read-out: Target Selectivity (IC50) DNAPK; cited from earlier work
[8] = molecular target: mTOR (Homo sapiens, UniProt P42345); conditions: read-out: Target Selectivity (IC50) mTOR; cited from earlier work
[9] = molecular target: PI4Kβ (Homo sapiens, UniProt Q9UBF8); conditions: read-out: Target Selectivity (IC50) PI4Kβ; cited from earlier work
[10] = molecular target: VPS34 (Homo sapiens, UniProt Q8NEB9); conditions: read-out: Target Selectivity (IC50) VPS34; cited from earlier work
[11] = molecular target: p70S6K (Homo sapiens, UniProt P23443); conditions: read-out: Target Selectivity (IC50) p70S6K; cited from earlier work
p70S6K, sequence (P23443 whole entry): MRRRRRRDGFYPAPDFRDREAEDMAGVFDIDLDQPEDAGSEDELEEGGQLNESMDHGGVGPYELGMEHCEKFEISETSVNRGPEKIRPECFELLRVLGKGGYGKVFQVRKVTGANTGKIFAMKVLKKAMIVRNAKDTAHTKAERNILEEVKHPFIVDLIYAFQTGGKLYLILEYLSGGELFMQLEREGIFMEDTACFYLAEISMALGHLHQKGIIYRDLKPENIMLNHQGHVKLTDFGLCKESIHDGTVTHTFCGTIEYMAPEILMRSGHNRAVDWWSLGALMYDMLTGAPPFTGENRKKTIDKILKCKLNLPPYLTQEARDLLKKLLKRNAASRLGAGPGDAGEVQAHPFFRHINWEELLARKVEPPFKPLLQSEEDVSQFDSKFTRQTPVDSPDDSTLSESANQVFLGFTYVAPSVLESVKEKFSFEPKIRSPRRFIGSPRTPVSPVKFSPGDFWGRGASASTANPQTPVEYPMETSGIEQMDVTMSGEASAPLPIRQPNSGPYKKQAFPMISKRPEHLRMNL

[12] = molecular target: CSF1R (Homo sapiens, UniProt P07333); conditions: read-out: Target Selectivity (IC50) CSF1R; cited from earlier work
CSF1R, sequence (P07333 20-972, species assumed): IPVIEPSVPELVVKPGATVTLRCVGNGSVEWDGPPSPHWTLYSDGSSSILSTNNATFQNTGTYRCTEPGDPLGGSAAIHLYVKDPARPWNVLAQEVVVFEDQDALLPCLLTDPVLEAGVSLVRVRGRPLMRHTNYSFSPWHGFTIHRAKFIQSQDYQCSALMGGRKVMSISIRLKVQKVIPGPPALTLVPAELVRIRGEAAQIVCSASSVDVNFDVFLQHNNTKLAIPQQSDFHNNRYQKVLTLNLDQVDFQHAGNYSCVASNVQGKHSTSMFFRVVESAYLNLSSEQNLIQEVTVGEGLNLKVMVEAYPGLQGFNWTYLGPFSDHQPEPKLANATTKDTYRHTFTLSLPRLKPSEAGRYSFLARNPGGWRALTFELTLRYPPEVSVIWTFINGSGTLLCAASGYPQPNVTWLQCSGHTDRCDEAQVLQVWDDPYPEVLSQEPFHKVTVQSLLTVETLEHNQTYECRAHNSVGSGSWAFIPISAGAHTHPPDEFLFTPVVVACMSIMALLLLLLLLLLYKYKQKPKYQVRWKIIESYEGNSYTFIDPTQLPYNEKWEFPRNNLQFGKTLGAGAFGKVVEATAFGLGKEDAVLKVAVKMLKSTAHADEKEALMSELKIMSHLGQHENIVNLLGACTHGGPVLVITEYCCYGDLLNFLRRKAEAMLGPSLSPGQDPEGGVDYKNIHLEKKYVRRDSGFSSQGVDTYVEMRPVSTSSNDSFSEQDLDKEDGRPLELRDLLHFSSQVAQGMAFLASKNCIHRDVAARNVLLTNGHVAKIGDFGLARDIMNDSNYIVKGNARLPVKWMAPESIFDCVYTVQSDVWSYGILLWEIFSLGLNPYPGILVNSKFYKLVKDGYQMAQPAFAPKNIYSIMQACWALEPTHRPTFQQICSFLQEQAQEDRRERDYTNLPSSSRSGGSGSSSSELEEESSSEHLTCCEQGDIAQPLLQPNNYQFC

Which results are given for `Cc1c(CN2CCN(C(=O)[C@H](C)O)CC2)sc2c(N3CCOCC3)nc(-c3cnc(N)nc3)nc12` [GDC-0980, apitolisib]?
2 h Glucose [1]: 27.0 ± 1.8 mM; 4 h Glucose [1]: 20.5 ± 0.9 mM

For `N#C[C@@H]1CCCN1C(=O)CNC12CC3CC(CC(O)(C3)C1)C2` [vildagliptin], which “effect on GSK690693-induced hyperglycemia” value (“effect” for short) [2] is on record?
Its value is “not prevented or reduce”.

With `CCn1c(-c2nonc2N)nc2c(C#CC(C)(C)O)ncc(OC[C@H]3CCCNC3)c21` [GSK690693] as the molecule, how does the induction of hyperglycemia ([2]; mouse, in vivo) read?
Its induction of hyperglycemia is “potently induces”.

What about the “2 h Glucose” value [1] of the same molecule?
Its value is 27.1 ± 2.6 mM.

What about the “4 h Glucose” value [1] of the same molecule?
The value was 21.2 ± 1.5 mM.

What does the source list for `NC1(c2ccc(-c3nc4ccn5c(=O)[nH]nc5c4cc3-c3ccccc3)cc2)CCC1` [MK2206]?
glucose levels after 2 h treatment ([3]; BALB/c nude mice, MK2206 150 mg/kg p.o.): not increased; increase in serum insulin after 2 h treatment ([3]; BALB/c nude tumor bearing mice, MK2206 150 mg/kg p.o., statistically significant): 65.5 fold; 4 h Insulin ([3]; Table 4 (glucose table), MiaPaCa2 tumor bearing BALB/c nude mice, 4 h after MK2206 150 mg/kg p.o.): 4.9 ± 0.8 ng/mL; 4 h Insulin ([3]; Table 4 (glucose table), naive (tumor-free) BALB/c nude mice, 4 h after MK2206 150 mg/kg): 5.7 ± 1.0 ng/mL; −0.5 h Glucose ([3]; Table 4, MiaPaCa2 tumor bearing BALB/c nude mice, 24 h after ASN or REMD2.59c, mean ± sd, n=3): 5.6 ± 0.8 mM; 2 h Glucose ([3]; Table 4, MiaPaCa2 tumor bearing BALB/c nude mice, 2 h after MK2206 150 mg/kg p.o.): 5.5 ± 1.0 mM; −0.5 h Glucose ([3]; Table 4, naive (tumor-free) BALB/c nude mice, no pretreatment): 5.7 ± 0.9 mM; 2 h Glucose ([3]; Table 4, naive (tumor-free) BALB/c nude mice, 2 h after MK2206 150 mg/kg): 5.8 ± 0.5 mM; 2 h Glucose ([3]; Table 5 (insulin table), MiaPaCa2 tumor bearing BALB/c nude mice, 2 h after MK2206 150 mg/kg p.o.): 26.2 ± 19.4 mM; 4 h Insulin ([3]; Table 5, MiaPaCa2 tumor bearing BALB/c nude mice, 4 h after MK2206 150 mg/kg p.o.): 7.1 ± 2.1 ng/mL; efficacy in Phase I/II clinical trials [4]: minimal; hyperglycemia and hyperinsulinemia in Phase I/II clinical trials [4]: consistently observed; 2 h Glucose [1]: 20.1 ± 0.8 mM; 4 h Glucose [1]: 9.6 ± 1.3 mM

Which “2 h Glucose” value [1] does the source give for `C[C@]1(O)C[C@@H](c2nc(-c3ccc4ccc(-c5ccccc5)nc4c3)c3c(N)nccn32)C1` [OSI-906, linsitinib] here?
The value was 29.3 ± 1.7 mM.

What about the “4 h Glucose” value [1] of the same molecule?
Its value is 23.4 ± 1.5 mM.

With Exendin-4 as the molecule, how does the “effect” value [2] read?
Its value is “not prevented or reduce”.

For “REMD-477: fully human anti-GCGR monoclonal antibody, heavy chain SEQ ID NO: 49 and light chain SEQ ID NO: 50”, which “amount of insulin needed” value [5] is on record?
Its value is “substantially reduce”.

What about the glucose levels [5] of the same molecule?
Its glucose levels is “improve”.

And the “hypoglycemia (low blood glucose levels)” value [5]?
The value was “without increasing”.

Which results are given for `Cc1nc(NC(=O)N2CCC[C@H]2C(N)=O)sc1-c1ccnc(C(C)(C)C(F)(F)F)c1` [BYL719, alpelisib]?
IC50 [6]: 15 µM; IC50 [7]: 9.1 µM; IC50 [8]: 9.1 µM; IC50 [9]: 0.581 µM; efficacy in Phase I/II clinical trials [4]: minimal; hyperglycemia and hyperinsulinemia in Phase I/II clinical trials [4]: consistently observed; IC50 [10]: 9.1 µM; 2 h Glucose [1]: 17.4 ± 1.4 mM; 4 h Glucose [1]: 11.9 ± 3.3 mM

With `CC(C)NC[C@@H](C(=O)N1CCN(c2ncnc3c2[C@H](C)C[C@H]3O)CC1)c1ccc(Cl)cc1` [GDC-0068, ipatasertib] as the molecule, how does the IC50 [11] read?
The IC50 was 0.862 µM.

What about the “2 h Glucose” value [1] of the same molecule?
The value was 28.4 ± 2.0 mM.

And the “4 h Glucose” value [1]?
Its value is 25.9 ± 1.2 mM.

With `CN(C)C(=N)N=C(N)N` [metformin] as the molecule, how does the “effect” value [2] read?
The value was “not prevented or reduce”.

Which IC50 [6] does the source give for `Nc1cc(C(F)(F)F)c(-c2cc(N3CCOCC3)nc(N3CCOCC3)n2)cn1` [BKM120, buparlisib] here?
The IC50 was 8.09 µM.

What about the “efficacy in Phase I/II clinical trials” value [4] of the same molecule?
The value was “minimal”.

What about the “hyperglycemia and hyperinsulinemia in Phase I/II clinical trials” value [4] of the same molecule?
The value was “consistently observed”.

And the “2 h Glucose” value [1]?
Its value is 15.7 ± 2.5 mM.

What about the “4 h Glucose” value [1] of the same molecule?
The value was 9.1 ± 1.3 mM.

What about the IC50 [12] of the same molecule?
The IC50 was 0.582 µM.
